Each block holds one compound with its values, some of them ahead of it. Calls of active or inactive are those of the source.
Columns and labels:
[1] = cytotoxicity toward NIH3T3 fibroblasts, dose response, counter-screen, cell-based, ATP luminescence, mouse fibroblasts (AID 2010); type: functional;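 further: cells exposed to compound for about 90 hours before reading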
[2] = target: T1, Sentrin-specific protease 8 (Homo sapiens, UniProt Q96LD8); type: functional
T1 sequence (Q96LD8 whole entry): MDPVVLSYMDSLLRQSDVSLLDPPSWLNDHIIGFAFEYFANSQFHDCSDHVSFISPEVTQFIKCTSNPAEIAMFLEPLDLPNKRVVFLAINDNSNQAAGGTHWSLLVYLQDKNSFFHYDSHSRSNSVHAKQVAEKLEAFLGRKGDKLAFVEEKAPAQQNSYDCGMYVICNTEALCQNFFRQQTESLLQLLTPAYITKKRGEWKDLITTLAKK

[3] = target: Tyrosyl-DNA phosphodiesterase 2 (Homo sapiens, UniProt O95551); assay: human TDP2 enzyme inhibitors, dose response, biochemical, epi absorbance, IC50 (AID 743297)
Chain of Tyrosyl-DNA phosphodiesterase 2 (O95551 whole entry): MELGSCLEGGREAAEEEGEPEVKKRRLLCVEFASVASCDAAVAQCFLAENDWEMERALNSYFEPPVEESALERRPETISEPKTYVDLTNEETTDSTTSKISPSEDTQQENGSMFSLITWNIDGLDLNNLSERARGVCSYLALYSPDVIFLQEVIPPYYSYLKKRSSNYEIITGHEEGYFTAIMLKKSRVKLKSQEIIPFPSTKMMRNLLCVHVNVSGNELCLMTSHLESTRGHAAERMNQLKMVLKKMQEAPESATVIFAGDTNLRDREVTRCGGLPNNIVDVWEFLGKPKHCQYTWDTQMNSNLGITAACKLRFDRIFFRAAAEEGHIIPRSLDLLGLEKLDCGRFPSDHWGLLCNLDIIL

[4] = inhibitors of intracellular T. cruzi replication, confirmation, NIH3T3 host cells, beta-gal luminescence (AID 2044); type: functional, cell-based;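 further: intracellular parasites grown in NIH/3T3 mouse fibroblasts as host cells; luminescent beta-galactosidase reporter signal from transgenic T. cruzi replicating inside host cells; inhibitors lower the luminescence signal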
[5] = target: T2, Histone-lysine N-methyltransferase NSD2 (Homo sapiens, UniProt O96028); type: biochemical
T2 sequence (O96028 whole entry): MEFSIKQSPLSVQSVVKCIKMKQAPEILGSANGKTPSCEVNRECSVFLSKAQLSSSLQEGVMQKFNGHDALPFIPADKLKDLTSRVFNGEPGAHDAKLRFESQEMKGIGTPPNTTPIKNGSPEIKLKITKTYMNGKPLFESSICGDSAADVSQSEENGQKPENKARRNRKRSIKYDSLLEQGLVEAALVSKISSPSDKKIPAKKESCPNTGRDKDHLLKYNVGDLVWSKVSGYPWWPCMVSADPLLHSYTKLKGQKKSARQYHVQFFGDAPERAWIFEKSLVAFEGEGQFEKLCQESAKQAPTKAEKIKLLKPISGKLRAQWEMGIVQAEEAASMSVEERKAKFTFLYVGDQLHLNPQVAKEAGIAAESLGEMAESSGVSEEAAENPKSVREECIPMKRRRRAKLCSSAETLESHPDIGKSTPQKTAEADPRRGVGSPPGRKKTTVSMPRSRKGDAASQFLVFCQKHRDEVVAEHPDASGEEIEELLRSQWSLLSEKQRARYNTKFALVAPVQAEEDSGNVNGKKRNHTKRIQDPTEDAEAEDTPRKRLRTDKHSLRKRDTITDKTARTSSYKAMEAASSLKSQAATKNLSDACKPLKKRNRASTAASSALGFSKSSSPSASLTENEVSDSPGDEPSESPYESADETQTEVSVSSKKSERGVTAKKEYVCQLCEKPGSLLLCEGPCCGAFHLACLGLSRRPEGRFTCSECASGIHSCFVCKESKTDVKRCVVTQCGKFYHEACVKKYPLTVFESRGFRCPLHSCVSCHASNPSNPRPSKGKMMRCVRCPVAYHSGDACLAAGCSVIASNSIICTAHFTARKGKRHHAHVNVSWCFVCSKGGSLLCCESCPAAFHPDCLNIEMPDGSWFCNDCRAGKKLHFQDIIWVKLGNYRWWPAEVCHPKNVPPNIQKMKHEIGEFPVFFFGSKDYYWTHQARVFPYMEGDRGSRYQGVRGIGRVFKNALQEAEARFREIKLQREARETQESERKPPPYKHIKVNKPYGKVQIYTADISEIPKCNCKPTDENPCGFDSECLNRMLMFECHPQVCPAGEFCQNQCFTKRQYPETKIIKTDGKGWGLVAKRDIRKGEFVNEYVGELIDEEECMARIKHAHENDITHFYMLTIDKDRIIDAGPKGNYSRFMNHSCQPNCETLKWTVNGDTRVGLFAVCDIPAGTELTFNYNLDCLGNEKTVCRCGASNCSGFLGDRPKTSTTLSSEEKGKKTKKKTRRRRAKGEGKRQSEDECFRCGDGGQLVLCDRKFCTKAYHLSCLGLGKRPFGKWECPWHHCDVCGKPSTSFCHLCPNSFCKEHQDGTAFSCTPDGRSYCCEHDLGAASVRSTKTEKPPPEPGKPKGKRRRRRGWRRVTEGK

[6] = target: T1, Sentrin-specific protease 8; type: functional; remark: listed apart in the source
Caspase-3 = target: T3, Caspase-3 (Homo sapiens, UniProt P42574); type: functional;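 further: Dose-response selectivity test against caspase-3 for candidate inhibitors of sentrin-specific proteases (SENPs)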
T3 sequence (P42574 whole entry): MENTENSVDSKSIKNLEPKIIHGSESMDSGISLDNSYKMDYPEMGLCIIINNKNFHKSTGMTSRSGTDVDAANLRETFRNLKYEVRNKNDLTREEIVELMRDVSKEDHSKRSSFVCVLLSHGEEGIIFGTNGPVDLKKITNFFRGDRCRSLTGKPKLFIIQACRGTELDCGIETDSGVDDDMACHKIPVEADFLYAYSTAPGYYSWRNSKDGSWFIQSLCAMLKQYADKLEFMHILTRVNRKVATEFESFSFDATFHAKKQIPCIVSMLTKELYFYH

[7] = target: Serine/threonine-protein kinase Nek2 (Homo sapiens, UniProt P51955); type: functional
[8] = target: Serine/threonine-protein kinase PLK4 (Homo sapiens, UniProt O00444); type: functional;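 further: PLK4 measured as one member of a kinome-wide kinase profiling panel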
Chain of Serine/threonine-protein kinase PLK4 (O00444 whole entry): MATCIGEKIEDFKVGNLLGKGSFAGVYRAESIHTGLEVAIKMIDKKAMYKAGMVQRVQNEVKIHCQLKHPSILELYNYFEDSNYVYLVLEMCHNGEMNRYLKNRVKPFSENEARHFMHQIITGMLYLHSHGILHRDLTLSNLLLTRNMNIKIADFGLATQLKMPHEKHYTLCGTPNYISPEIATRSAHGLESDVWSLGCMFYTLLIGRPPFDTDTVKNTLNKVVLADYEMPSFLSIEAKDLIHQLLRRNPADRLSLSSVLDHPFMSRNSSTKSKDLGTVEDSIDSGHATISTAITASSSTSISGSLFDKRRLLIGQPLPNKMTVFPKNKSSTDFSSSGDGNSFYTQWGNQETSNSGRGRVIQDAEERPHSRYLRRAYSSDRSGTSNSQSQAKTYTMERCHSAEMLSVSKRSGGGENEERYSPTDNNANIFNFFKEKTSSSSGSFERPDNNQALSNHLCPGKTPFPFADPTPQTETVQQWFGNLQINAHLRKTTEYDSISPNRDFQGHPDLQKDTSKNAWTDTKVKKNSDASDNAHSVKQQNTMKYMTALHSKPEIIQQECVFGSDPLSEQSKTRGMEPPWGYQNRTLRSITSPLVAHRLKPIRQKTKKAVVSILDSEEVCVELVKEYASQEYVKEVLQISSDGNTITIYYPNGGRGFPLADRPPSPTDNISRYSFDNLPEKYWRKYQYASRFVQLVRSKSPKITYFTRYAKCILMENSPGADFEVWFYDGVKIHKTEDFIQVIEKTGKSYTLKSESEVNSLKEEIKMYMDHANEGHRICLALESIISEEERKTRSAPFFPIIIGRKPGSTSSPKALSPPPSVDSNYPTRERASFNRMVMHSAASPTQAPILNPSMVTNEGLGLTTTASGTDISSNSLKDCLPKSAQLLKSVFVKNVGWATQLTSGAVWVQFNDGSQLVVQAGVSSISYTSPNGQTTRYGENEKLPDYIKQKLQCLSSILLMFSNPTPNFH

[9] = target: Homeodomain-interacting protein kinase 4 (Homo sapiens, UniProt Q8NE63); type: functional
Chain of Homeodomain-interacting protein kinase 4 (Q8NE63 whole entry): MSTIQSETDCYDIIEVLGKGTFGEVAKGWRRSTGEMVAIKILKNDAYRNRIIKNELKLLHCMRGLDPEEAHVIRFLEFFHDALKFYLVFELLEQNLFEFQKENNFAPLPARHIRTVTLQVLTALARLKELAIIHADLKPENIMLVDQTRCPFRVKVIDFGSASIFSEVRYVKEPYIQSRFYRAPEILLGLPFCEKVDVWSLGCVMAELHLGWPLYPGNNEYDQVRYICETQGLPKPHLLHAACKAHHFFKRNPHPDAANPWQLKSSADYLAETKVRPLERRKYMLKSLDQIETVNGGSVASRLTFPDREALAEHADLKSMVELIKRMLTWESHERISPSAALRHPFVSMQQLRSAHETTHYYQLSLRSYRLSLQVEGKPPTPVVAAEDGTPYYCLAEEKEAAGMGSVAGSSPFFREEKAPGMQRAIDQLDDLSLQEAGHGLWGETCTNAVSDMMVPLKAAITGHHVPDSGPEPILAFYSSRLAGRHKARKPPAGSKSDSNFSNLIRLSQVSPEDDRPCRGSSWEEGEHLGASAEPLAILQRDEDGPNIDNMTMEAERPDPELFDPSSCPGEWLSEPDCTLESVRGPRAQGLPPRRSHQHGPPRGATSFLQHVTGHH

[10] = target: Ribosomal protein S6 kinase beta-1 (Homo sapiens, UniProt P23443); type: functional;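 further: measured as one member of a kinome-wide profiling panel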
Chain of Ribosomal protein S6 kinase beta-1 (P23443 whole entry): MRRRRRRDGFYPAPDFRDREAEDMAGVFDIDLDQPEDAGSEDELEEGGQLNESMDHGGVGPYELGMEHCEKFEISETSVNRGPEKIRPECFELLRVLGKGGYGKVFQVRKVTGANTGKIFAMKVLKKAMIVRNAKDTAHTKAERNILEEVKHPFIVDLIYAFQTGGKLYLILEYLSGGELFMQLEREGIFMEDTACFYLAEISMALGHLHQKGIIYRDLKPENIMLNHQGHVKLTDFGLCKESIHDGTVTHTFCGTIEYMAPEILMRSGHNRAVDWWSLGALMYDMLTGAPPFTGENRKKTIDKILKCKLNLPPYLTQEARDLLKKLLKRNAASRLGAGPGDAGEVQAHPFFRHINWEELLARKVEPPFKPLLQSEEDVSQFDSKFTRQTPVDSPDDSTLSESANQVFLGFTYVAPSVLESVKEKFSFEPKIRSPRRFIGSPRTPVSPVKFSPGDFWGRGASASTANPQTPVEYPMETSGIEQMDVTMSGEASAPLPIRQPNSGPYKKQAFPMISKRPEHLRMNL

[11] = target: Vascular endothelial growth factor receptor 2 (Homo sapiens, UniProt P35968); type: functional
[12] = target: Proto-oncogene tyrosine-protein kinase ROS (Homo sapiens, UniProt P08922); type: functional;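 further: ROS1 tested as one member of a kinome-wide kinase panel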
[13] = target: Rho-associated protein kinase 2 (Homo sapiens, UniProt O75116); type: functional
[14] = target: Tyrosine-protein kinase Lyn (Homo sapiens, UniProt P07948); type: functional;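 further: lyn as one member of a kinase panel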
[15] = target: Dual specificity tyrosine-phosphorylation-regulated kinase 3 (Homo sapiens, UniProt O43781); type: functional;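 further: measured as one member of a broad kinase panel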
Chain of Dual specificity tyrosine-phosphorylation-regulated kinase 3 (O43781 whole entry): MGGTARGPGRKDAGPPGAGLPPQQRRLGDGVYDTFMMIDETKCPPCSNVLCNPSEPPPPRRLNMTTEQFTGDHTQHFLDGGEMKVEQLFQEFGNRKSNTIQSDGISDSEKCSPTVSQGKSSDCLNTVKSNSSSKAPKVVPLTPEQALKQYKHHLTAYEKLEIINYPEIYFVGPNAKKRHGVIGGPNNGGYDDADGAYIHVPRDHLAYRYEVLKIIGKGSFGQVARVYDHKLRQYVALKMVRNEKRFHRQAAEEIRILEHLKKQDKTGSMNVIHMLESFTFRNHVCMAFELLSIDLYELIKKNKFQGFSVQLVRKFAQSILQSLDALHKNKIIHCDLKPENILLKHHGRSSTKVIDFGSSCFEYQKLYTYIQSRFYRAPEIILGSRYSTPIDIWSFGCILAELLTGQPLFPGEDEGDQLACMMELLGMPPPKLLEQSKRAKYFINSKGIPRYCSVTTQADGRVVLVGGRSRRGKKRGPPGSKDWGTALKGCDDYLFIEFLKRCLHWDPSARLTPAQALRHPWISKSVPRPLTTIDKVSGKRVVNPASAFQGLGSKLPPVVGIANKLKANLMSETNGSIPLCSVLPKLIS

[16] = target: Cyclin-dependent kinase 9 (Homo sapiens, UniProt P50750); type: functional;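 further: value from the CDK9 entry of a kinome-spanning kinase panel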
Chain of Cyclin-dependent kinase 9 (P50750 whole entry): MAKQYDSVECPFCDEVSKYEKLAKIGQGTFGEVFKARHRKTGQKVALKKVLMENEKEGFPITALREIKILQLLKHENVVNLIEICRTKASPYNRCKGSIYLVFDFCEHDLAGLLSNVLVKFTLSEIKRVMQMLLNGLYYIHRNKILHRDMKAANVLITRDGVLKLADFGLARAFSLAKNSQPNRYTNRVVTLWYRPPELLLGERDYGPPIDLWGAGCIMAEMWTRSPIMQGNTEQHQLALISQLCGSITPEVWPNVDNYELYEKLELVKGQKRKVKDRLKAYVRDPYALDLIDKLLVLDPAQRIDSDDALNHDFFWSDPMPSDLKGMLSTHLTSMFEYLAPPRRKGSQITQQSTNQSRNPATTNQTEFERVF

[17] = target: 5'-AMP-activated protein kinase catalytic subunit alpha-1 (Homo sapiens, UniProt Q13131); type: functional
Chain of 5'-AMP-activated protein kinase catalytic subunit alpha-1 (Q13131 whole entry): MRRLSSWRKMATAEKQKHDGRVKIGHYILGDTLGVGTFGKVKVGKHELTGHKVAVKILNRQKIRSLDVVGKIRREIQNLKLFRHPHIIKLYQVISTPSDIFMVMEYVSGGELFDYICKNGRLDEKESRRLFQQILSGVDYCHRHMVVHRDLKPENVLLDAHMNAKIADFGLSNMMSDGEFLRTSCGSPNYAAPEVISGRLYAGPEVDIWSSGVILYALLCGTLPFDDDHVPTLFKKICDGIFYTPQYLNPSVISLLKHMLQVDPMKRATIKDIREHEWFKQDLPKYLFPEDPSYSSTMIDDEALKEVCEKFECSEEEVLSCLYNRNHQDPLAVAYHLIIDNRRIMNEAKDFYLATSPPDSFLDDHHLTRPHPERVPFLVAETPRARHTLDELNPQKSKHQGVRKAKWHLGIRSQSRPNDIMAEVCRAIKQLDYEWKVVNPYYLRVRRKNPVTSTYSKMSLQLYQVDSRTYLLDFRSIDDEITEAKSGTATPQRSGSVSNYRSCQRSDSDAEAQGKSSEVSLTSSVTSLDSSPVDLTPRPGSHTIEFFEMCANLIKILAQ

[18] = target: Casein kinase II subunit alpha (Homo sapiens, UniProt P68400); type: functional
Chain of Casein kinase II subunit alpha (P68400 whole entry): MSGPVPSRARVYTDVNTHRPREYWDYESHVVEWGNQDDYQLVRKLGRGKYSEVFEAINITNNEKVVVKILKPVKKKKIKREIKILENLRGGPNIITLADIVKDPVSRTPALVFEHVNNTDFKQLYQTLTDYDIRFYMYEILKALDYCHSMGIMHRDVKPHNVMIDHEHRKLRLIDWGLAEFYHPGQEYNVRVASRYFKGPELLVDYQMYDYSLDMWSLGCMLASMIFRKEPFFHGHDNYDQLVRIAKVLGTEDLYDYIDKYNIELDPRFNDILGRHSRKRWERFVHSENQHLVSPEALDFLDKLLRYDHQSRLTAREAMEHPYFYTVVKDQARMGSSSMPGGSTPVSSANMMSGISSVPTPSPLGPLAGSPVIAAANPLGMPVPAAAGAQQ

[19] = target: Mitogen-activated protein kinase 12 (Homo sapiens, UniProt P53778); type: functional;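 further: measured as one member of a kinome-wide kinase profiling panel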
Chain of Mitogen-activated protein kinase 12 (P53778 whole entry): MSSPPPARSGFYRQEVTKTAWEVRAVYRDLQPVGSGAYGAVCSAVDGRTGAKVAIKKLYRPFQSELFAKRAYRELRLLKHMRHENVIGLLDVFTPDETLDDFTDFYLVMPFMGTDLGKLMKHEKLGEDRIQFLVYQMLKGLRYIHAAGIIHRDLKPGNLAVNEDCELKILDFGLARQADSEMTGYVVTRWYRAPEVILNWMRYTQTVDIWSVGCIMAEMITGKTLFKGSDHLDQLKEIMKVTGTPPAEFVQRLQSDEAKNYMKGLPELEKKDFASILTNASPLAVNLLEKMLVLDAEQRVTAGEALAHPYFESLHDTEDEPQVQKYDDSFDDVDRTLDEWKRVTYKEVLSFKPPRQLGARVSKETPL

[20] = target: Macrophage-stimulating protein receptor (Homo sapiens, UniProt Q04912); assay: Navigating the Kinome. Panel member name: MST1R; type: functional

SMILES: Cc1c(NC(=O)C(C)OC(=O)c2ccc([N+](=O)[O-])s2)c(=O)n(-c2ccccc2)n1C (stereo not given)
EC50 [1]: > 60000 nM (not active)
IC50 [2]: 7350 nM (active)
IC50 [3]: 49500 nM (inactive)
EC50 [4]: 1590 nM (active)
AC50 [5]: > 20000 nM (inactive)
IC50 [6]: 1990 nM (active)
IC50 (Caspase-3): 13600 nM (active)

SMILES: COc1cc(Br)c(C(=O)c2nccc3cc(OC)c(OC)cc23)cc1OC
IC50 [2]: 377 nM (active)
IC50 [3]: 3530 nM (active)
AC50 [5]: 416 nM (active)
IC50 [6]: 2290 nM (active)

Ki [7]: > 10000 nM (inactive)
Ki [8]: 1580 nM (active)
Ki [9]: > 7940 nM (inactive)
Ki [10]: 501 nM (active)
Ki [11]: > 5010 nM (inactive)
Ki [12]: > 2000 nM (inactive)
Ki [13]: 25.1 nM (active)
Ki [14]: > 1580 nM (inactive)
Ki [15]: > 6310 nM (inactive)
Ki [16]: > 1580 nM (inactive)
Ki [17]: > 2510 nM (inactive)
Ki [18]: > 6310 nM (inactive)
Ki [19]: > 6310 nM (inactive)
Ki [20]: 2000 nM (active)
SMILES: CC(N)C1CCC(C(=O)Nc2ccnc3[nH]ccc23)CC1 (stereo not given)
